Assay results from ChEMBL document CHEMBL1151429, “Novel drug resistance pattern associated with the mutations K70G and M184V in human immunodeficiency virus type 1 reverse transcriptase” (2007).

What was measured:
Assay type in all cases: functional
[1] = system: Human immunodeficiency virus 1; test: Antiviral activity against HIV1 LAI with reverse transcriptase K70E mutation relative to wild type HIV1 LAI
[2] = system: Human immunodeficiency virus 1; test: Ratio of IC50 for HIV1 with reverse transcriptase K70G/M184V mutation to IC50 for wild type HIV1
[3] = system: Human immunodeficiency virus 1; test: Ratio of IC50 for HIV1 with reverse transcriptase K70G mutation to IC50 for wild type HIV1
[4] = system: Human immunodeficiency virus 1; test: Ratio of IC50 for HIV1 with reverse transcriptase K70E/M184V mutation to IC50 for wild type HIV1
[5] = system: Human immunodeficiency virus 1; test: Antiviral activity against HIV1 with reverse transcriptase K70E M184V and K70G M184V mutation by antivirogram biological cutoffs assay relative to wild type HIV1

Row | Compound | fold change (FC) [1] | Ratio IC50 [2] | Ratio IC50 [3] | Ratio IC50 [4] | fold change (FC) [5]
1 | C[C@H](Cn1cnc2c(N)ncnc21)OCP(=O)(O)OP(=O)(O)OP(=O)(O)O | 2.1 |  |  |  | 
2 | Nc1nc(NC2CC2)c2ncn([C@H]3C=C[C@@H](CO)C3)c2n1 [ABACAVIR] |  | 3.2 | 2.1 | 1.3 | 2.2
3 | Nc1nc(=O)c2ncn([C@H]3C=C[C@@H](COP(=O)(O)OP(=O)(O)OP(=O)(O)O)C3)c2[nH]1 [CARBOVIR 5'-TRIPHOSPHATE, (-)-] | 2.3 |  |  |  | 
4 | O=c1[nH]cnc2c1ncn2[C@H]1CC[C@@H](CO)O1 [DIDANOSINE] |  | 5.3 | 2.1 | 1.6 | 2.2
5 | Nc1nc(=O)n([C@@H]2CS[C@H](CO)O2)cc1F [EMTRICITABINE] |  | >63.4 |  | >40.8 | 3.5
6 | Nc1ccn([C@@H]2CS[C@H](COP(=O)(O)OP(=O)(O)OP(=O)(O)O)O2)c(=O)n1 [LAMIVUDINE TRIPHOSPHATE] | 3.5 |  |  |  | 
7 | Nc1ccn([C@@H]2CS[C@H](CO)O2)c(=O)n1 [LAMIVUDINE] |  |  |  |  | 2.4
8 | Cc1cn([C@H]2C=C[C@@H](CO)O2)c(=O)[nH]c1=O [STAVUDINE] |  | 0.9 | 1.3 | 0.4 | 2.3
9 | C[C@H](Cn1cnc2c(N)ncnc21)OCP(=O)(O)O [TENOFOVIR ANHYDROUS] |  | 1.5 | 1.9 | 1.7 | 2.1
10 | Cc1cn([C@H]2C[C@H](N=[N+]=[N-])[C@@H](CO)O2)c(=O)[nH]c1=O [ZIDOVUDINE] |  | <0.8 |  | <0.3 | 2.7
